According to paper PMC11314366, “Unveiling the Catalytic Roles of DsBBS1 and DsBBS2 in the Bibenzyl Biosynthesis of Dendrobium sinense” (Molecules, 2024):

System: DsBBS2
Assay: HPLC of resveratrol formed, nonlinear curve fitting
Format: biochemical, Dendrobium sinense
Settings: 0.5 mM malonyl-CoA, 50 mM Hepes, 37 °C, 30 min; p-coumaroyl-CoA 0.5-5.0 mM

Work on `CC(C)(COP(=O)(O)OP(=O)(O)OC[C@H]1O[C@@H](n2cnc3c(N)ncnc32)[C@H](O)[C@@H]1OP(=O)(O)O)[C@@H](O)C(=O)NCCC(=O)NCCSC(=O)/C=C/c1ccc(O)cc1` [p-coumaroyl-CoA] yielded a Km of 2050 ± 310 µM.
